Experimental data reported in the supplement of paper PMC8671470.

Experiments:
Conditions in all cases: 72 h
[1] = system: MV4-11; test: cell viability (% survival relative to DMSO control, bortezomib = 0%); higher = less cytotoxic
How it was run: (§1)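 Fifteen myeloid leukaemia cell lines were exposed to compounds at 1, 10, 100, 1000 or 10000 nM in 384-well plates for 72 h at 37 °C and 5% CO2. Viability was read by CellTiter-Glo luminescence and normalised, with vehicle as 100% and a 10 µM positive control as 0%. Values are percent survival averaged over duplicates.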

[2] = system: K-562; test: as above
How it was run: as §1

[3] = system: Mono-Mac-6; test: as above
How it was run: as §1

[4] = system: SHI-1; test: as above
How it was run: as §1

[5] = system: THP-1; test: as above
How it was run: as §1

[6] = system: BV-173; test: as above
How it was run: as §1

[7] = system: NOMO-1; test: as above
How it was run: as §1

[8] = system: HEL; test: as above
How it was run: as §1

[9] = system: MOLM-13; test: as above
How it was run: as §1

[10] = system: ML-2; test: as above
How it was run: as §1

[11] = system: HL-60; test: as above
How it was run: as §1

[12] = system: KU-812; test: as above
How it was run: as §1

[13] = system: LAMA-84; test: as above
How it was run: as §1

[14] = system: KG-1; test: as above
How it was run: as §1

[15] = system: KCL-22; test: as above
How it was run: as §1

[16] = system: MV4-11
How it was run: (§2)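 The IC50 was read from log-logistic dose–response fits. Fifteen myeloid leukaemia lines were exposed for 72 h at 37 °C with 5% CO2 to five tenfold doses from 1 to 10,000 nM in duplicate. ATP luminescence, normalised to vehicle and to a 10 µM positive control, was fitted with four parameters.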

[17] = system: K-562
How it was run: as §2

[18] = system: Mono-Mac-6
How it was run: as §2

[19] = system: NOMO-1
How it was run: as §2

[20] = system: KU-812
How it was run: as §2

[21] = system: HL-60; test: cell viability (% survival relative to DMSO control); higher = less cytotoxic
How it was run: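 HL-60 cells in RPMI 1640 with 10% FBS were rescreened against the full library on 384-well plates at five tenfold concentrations, 1–10,000 nM, in duplicate. Each screen was run with DMSO or 100 nM of one of three metabolic inhibitors, for 72 h at 37 °C, 5% CO2. Viability was read by CellTiter-Glo and normalised to DMSO and 10 μM proteasome-inhibitor wells. Where given, area under the curve came from four-parameter log-logistic fits (drc, PharmacoGx).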

CN(C)C(=O)[C@H](O)[C@H](Cc1ccccc1)NC(=O)c1cc2cc(Cl)ccc2[nH]1
cell viability [%]
Conditions	1 nM	10 nM	100 nM	1000 nM	10000 nM
[1]	97.9	83.8	98.4	102	68.6
[2]	79	84.3	94.3	105	79
[3]	94.8	97.8	103	96.5	83.8
[4]	106	97.8	115	114	99.6
[5]	96.3	95.8	103	104	91.8
[6]	88.3	110	98.4	105	73.2
[7]	101	102	106	106	95.4
[8]	98.5	102	99.1	112	88.1
[9]	97.6	98.6	101	123	88.1
[10]	110	100	106	120	85
[11]	85.4	100	108	174	89.1
[12]	98.1	96	102	104	62.6
[13]	94.6	97.6	114	107	83.3
[14]	102	93.9	95.2	114	80.3
[15]	107	98.3	108	105	91.6

Conditions	IC50 (cell viability) [µM]
[16]	> 10
[17]	> 10
[18]	> 10
[19]	> 10
[20]	> 10

cell viability [%], [21]
Conditions	0.001 µM	0.01 µM	0.1 µM	1 µM	10 µM
co-treatment: AZD3965 100 nM	105	101	98.4	101	100.2
co-treatment: DMSO vehicle	101	102.3	95.7	100	110
co-treatment: GSK2194069 100 nM	102	110	101	100	99.4
co-treatment: pictilisib 100 nM	97.4	107	93.8	96	97.3
